Results from PubChem BioAssay AID1845196 (Molecular Pharmacology Branch, DTP, NCI, 2023).
Where “and” joins values, the source holds several entries; their conditions need not be identical. Equal entries are not always repeated.

Tested on: 292921-168-R tumor spheroid viability
Assay: Anticancer human tumor 292921-168-R patient-derived pancreatic carcinoma cell line growth inhibition
Conditions: spheroids with HUVEC and MSC; for viability, T/C: stronger effect = lower value
From the text: Multicellular complex tumor spheroid response to DNA repair inhibitors in combination with DNA-damaging drugs
This study explores the anticancer activities of DNA-damaging drugs and inhibitors of DNA damage repair, both as single agents and in combinations. Complex tumor spheroids comprised of malignant cells, endothelial cells and mesenchymal stem cells served as an in vitro model for human solid tumors. This model system incorporates physiologically relevant features and patient-derived or established malignant cell lines with clinically relevant genetic alterations from many tumor types. Twenty-six patient-derived or established malignant cell lines were evaluated representing sarcoma, melanoma, small cell lung cancer (SCLC), non-small cell lung cancer (NSCLC), as well as bladder, ovarian and pancreatic cancers. The concentration ranges selected for each drug and investigational agent were based upon clinically achievable concentrations if the clinical Cmax of the agent was known.
Compounds. The drugs and compounds olaparib (NSC753686), talazoparib (NSC767125), berzosertib (NSC777718), elimusertib (NSC800525), nedisertib (NSC802822), VX-984 (NSC792969), AZD-1390 (NSC803789), temozolomide (NSC362856), topotecan (NSC609699), trabectedin (NSC813783), staurosporine (NSC755774), and gemcitabine (NSC613327) were obtained from the National Cancer Institute (NCI) Developmental Therapeutics Program Chemical Repository. The FDA-approved anticancer drug set is available from the Developmental Therapeutics Program at https://dtp.cancer.gov/organization/dscb/obtaining/available_plates.htm. […] The stock solutions were prepared in dimethyl sulfoxide (DMSO, Sigma-Aldrich, St. Louis, MO, cat. D2650) at 400-fold the tested concentration and stored at -70 degrees C. Prior to their use, the stock solutions were diluted in fresh medium and the final DMSO concentration in the assay was 0.25% (v/v). All drugs and investigational agents were tested over a range starting from a high concentration at or near the clinical Cmax and decreasing in half-log increments. If the clinical Cmax for an agent had not been determined, the highest concentration tested was 10 microM.
Cell Lines. The patient-derived cancer cell (PDC) lines: 156681-154-R-J1-PDC, 283228-195-R-J1-PDC, 287954-098-R-J1-PDC, 292921-168-R-J2-PDC, 349418-098-R-PDC, 425362-245-T-J1-PDC, 556581-035-R-J1-PDC, and BL0293-F563-PDC were received from the NCI Patient-Derived Models Repository (PDMR, https://pdmr.cancer.gov). The established cell lines HS-SY-2 (RRID:CVCL_8719), MPNST, and SYO-1 (RRID:CVCL_7146) were obtained from the Sloan Kettering Institute. The alveolar soft parts sarcoma cell line ASPS-1 (RRID:CVCL_S738) was established at the NCI and grown from internal seed stocks. The following established cell lines were purchased from the American Type Culture Collection (ATCC, Manassas, VA): G-401 (ATCC, cat. CRL-1441, RRID:CVCL_0270), SW982 (ATCC, cat. HTB-93, RRID:CVCL_1734), VA-ES-BJ (ATCC, cat. CRL-2138, RRID:CVCL_1785), NCI-H719 (ATCC, cat. CRL-5837, RRID:CVCL_1582), NCI-H196 (ATCC, cat. CRL-5823, RRID:CVCL_1509), NCI-H841 (ATCC, cat. CRL-5845, RRID:CVCL_1595), NCI-H1618 (ATCC, cat. CRL-5879, RRID:CVCL_1480), NCI-H1876 (ATCC, cat. CRL-5902, RRID:CVCL_1503), DMS 114 (ATCC, cat. CRL-2066; RRID:CVCL_1174), NCI-H211 (ATCC, cat. CRL-5824; RRID:CVCL_1529), and SW 1271 (ATCC, cat. CRL-2177, RRID:CVCL_1716). The small cell lung cancer cell line COR-L88 was purchased from Sigma-Aldrich (cat. 92031917-1VL, RRID:CVCL_1141). The non-small cell lung cancer cell lines NCI-H226 (RRID:CVCL_1544) and NCI-H322M (RRID:CVCL_1557) were established at the NCI and grown from internal seed stocks. Pooled donor human umbilical vein endothelial cells (HUVEC, Lonza, cat. CC-2519) and human mesenchymal stem cells (hMSC, Lonza, cat. PT-2501) were purchased from Lonza (Walkersville, MD).
Cell Culture. All cells were maintained in an incubator at 37 degrees C and 5% CO2 with 95% humidity. […]

[1] = compound alone, run of 10/17/2019
[2] = compound alone, run of 10/25/2019
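Further: spheroids exposed to compounds for 7 days.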

SMILES	viability, T/C (compound 0.0316 µM)	viability, T/C (compound 0.1 µM)	viability, T/C (compound 0.316 µM)	viability, T/C (compound 1 µM)	viability, T/C (compound 3.16 µM)	viability, T/C (compound 10 µM)	IC50 (curve of compound)	viability, T/C (compound 0.00949 µM)	viability, T/C (compound 0.03 µM)	viability, T/C (compound 0.0949 µM)	viability, T/C (compound 0.3 µM)	viability, T/C (compound 0.949 µM)	viability, T/C (compound 3 µM)	also measured
CC(C)n1c(=O)n(C)c2cnc3cc(F)c(-c4ccc(OCCCN5CCCCC5)nc4)cc3c21	93.7% and 95.7% and 101%	92.2% and 101% and 92.6%	92.8% and 93.5% and 87.8%	92.4% and 91.1% and 84%	70.3% and 70.5% and 69.1%	29.2% and 26.8% and 32.8%	5580 nM and 5440 nM and 5670 nM	–	–	–	–	–	–	–
CC1COCCN1c1cc(-c2ccnn2C)c2ccnc(-c3ccn[nH]3)c2n1 (stereo not drawn)	26.3% and 36.1% and 39.6%	14.2% and 20.1% and 22%	11.9% and 13.8% and 14.4%	13.8% and 13.7% (2×)	14.8% and 14.5% and 14.9%	16.8% and 16% and 16.7%	< 31.6 nM	–	–	–	–	–	–	–
CC[C@@]1(O)C(=O)OCc2c1cc1n(c2=O)Cc2cc3c(CN(C)C)c(O)ccc3nc2-1	–	–	–	–	–	–	–	77.4% [middle of 10 runs]	36.8% [middle of 10 runs]	12.2% [middle of 10 runs]	4.45% [middle of 10 runs]	–	–	viability, T/C (compound 0.003 µM): 94.9% [middle of 10 runs]; IC50 [1]: 19.4 nM [middle of 5 runs]; IC50 [2]: 22.6 nM [middle of 4 runs]
CNCc1ccc(-c2cc(-c3nc(-c4ccc(S(=O)(=O)C(C)C)cc4)cnc3N)on2)cc1	–	–	–	–	–	–	307 nM and 226 nM and 236 nM	101% and 106% and 104%	101% and 94.1% and 95.1%	79.2% and 80% and 91.3%	49.7% and 37.8% and 38.7%	26.5% and 25.3% and 20.8%	11.9% (2×) and 13.2%	–
COc1cc(C)[nH]c(=O)c1CN1CCc2c(Cl)cc(C(OC)C3COC3)c(Cl)c2C1=O (stereo not drawn)	108% and 97.3% and 113%	112% and 106% and 113%	115% and 92.9% and 89.7%	109% and 95.4% and 97.2%	90.3% and 89.2% and 90.4%	101% and 89.8% and 75.1%	> 10000 nM	–	–	–	–	–	–	–
COc1cc2c(cc1O)CCNC21CSC2c3c(OC(C)=O)c(C)c4c(c3C(COC1=O)N1C(O)C3Cc5cc(C)c(OC)c(O)c5C(C21)N3C)OCO4 (stereo not drawn)	–	–	–	–	–	–	–	–	–	–	–	–	–	viability, T/C (compound 94.9 pM): 101% [middle of 10 runs]; viability, T/C (compound 0.0003 µM): 41.8% [middle of 10 runs]; viability, T/C (compound 0.000949 µM): 3.57% [middle of 10 runs]; viability, T/C (compound 0.003 µM): 0.16% [middle of 5 runs]; IC50 [2]: 0.259 nM [middle of 10 runs]
COc1ccc([C@@H](O)c2cc(-c3ncnc4cc(N5CCOCC5)ccc34)c(F)cc2Cl)nn1	103% and 105% and 96.1%	99.4% and 97.3% and 101%	91.3% and 87.4% and 87.8%	57.4% and 56.3% and 64.4%	37% and 34.3% and 35.8%	20.6% and 19% and 21%	1570 nM and 1450 nM and 1780 nM	–	–	–	–	–	–	–
Cc1cc(C)c(CNC(=O)c2cc(-c3ccc(CN4CCOCC4)cc3)cc3c2cnn3C2CCCC2)c(=O)[nH]1	103% and 102% and 97.1%	101% and 104% and 88.9%	110% and 97.8% and 101%	106% and 103% and 98.5%	102% and 88.8% and 103%	75.6% and 68.8% and 63.9%	> 10000 nM	–	–	–	–	–	–	–
Cc1sc2c(c1C)C(c1ccc(Cl)cc1)=NC(CC(=O)Nc1ccc(O)cc1)c1nnc(C)n1-2 (stereo not drawn)	–	–	–	–	–	–	2950 nM and 1850 nM and > 3000 nM	119% (2×) and 110%	124% and 90% and 120%	132% and 104% and 113%	114% and 102% and 124%	92.9% and 71.4% and 81.5%	49.3% and 34.5% and 57.9%	–
Cn1ncnc1[C@H]1c2n[nH]c(=O)c3cc(F)cc(c23)N[C@@H]1c1ccc(F)cc1	–	–	–	–	–	–	661 nM and 537 nM and 692 nM	101% and 87.5% and 95.8%	93.7% and 83.1% and 93%	87.9% and 81.8% and 80.5%	68.6% and 62.7% and 63.2%	41.3% and 36.9% and 46%	14% (2×) and 11.2%	–
Cn1nnc2c(C(N)=O)ncn2c1=O	–	–	–	94.3% [middle of 10 runs]	95.5% [middle of 10 runs]	94.8% [middle of 10 runs]	–	–	–	–	–	–	–	viability, T/C (compound 31.6 µM): 90.8% [middle of 10 runs]; viability, T/C (compound 100 µM): 85.8% [middle of 10 runs]; IC50 [1]: > 100000 nM
O=C(c1cc(Cc2n[nH]c(=O)c3ccccc23)ccc1F)N1CCN(C(=O)C2CC2)CC1	–	–	–	–	–	–	19200 nM and 15700 nM and 16800 nM	–	–	91.5% and 96.1% and 103%	102% and 99.1% and 96%	91.7% and 100% and 98.5%	87.8% and 89.6% and 92.7%	viability, T/C (compound 9.49 µM): 66.9% and 61.2% and 64.2%; viability, T/C (compound 30 µM): 39.4% and 35.8% and 35.6%
[2H]c1nc(C)nc([2H])c1-c1cc(NC[C@@H](C)c2cccc3c(C(=O)NC)ccnc23)ncn1	106% and 103% (2×)	104% and 93.4% and 89.7%	104% and 100% and 97.8%	115% and 99.2% and 93.3%	113% and 101% and 96.8%	95.7% and 91.2% and 95.8%	> 10000 nM	–	–	–	–	–	–	–
